According to publication PMC4005910 (Cell Reports, 2014):

Columns and labels:
[1] = Solubility of peptide for TAP binding test; format: physicochemical; conditions: could not be tested for TAP binding
cytoplasmatic peptidase = conditions: half-life; ref Lazaro et al., 2011; cited from earlier work

Sequence: GTTSTLQEQIAW [GW12]
- solubility [1]: insoluble

Sequence: KAFSPEVIPMF [KF11]
- cytoplasmatic peptidase stability, t1/2 (cytoplasmatic peptidase): 13 s
